We go through 2 compounds from PubChem BioAssay (NCI).

Several values for one entry are separate records, joined by “and”; a condition that tells them apart may be missing. Equal entries are not always repeated.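 1) Cells in 96-well plates. 2) Compound, 48 h, 5 concentrations. 3) Linear interpolation between surrounding doses. 4) Unreached endpoint = highest concentration. At the GI50, growth is halved. At the TGI there is no net growth.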

Holding throughout (experiment): growth of human tumour cells (NCI), 48 h
Assay [1] has as its system NCI-H226 lung.
In assay [2] the test system is SK-MEL-28 melanoma.
Assay [3] relates to SF-268 CNS.
For assay [4], the system named is HS 578T breast.
The subject of assay [5] is A549 NSCLC.
For assay [6], the system named is SK-MEL-2 melanoma.
The subject of assay [7] is HOP-62 NSCLC.
For assay [8], the system named is RPMI-8226 leukemia.
In assay [9] the test system is DU-145 prostate.
Assay [10] relates to HL-60(TB) leukemia.

As for `O=C(O)c1cccc(S(=O)(=O)NCCO)c1`, the TGI in [1], in assay [2], in assay [3], in assay [4], in assay [5] and in assay [6] was above 100 µM each time. The TGI in assay [7], in assay [8], in assay [9] and in [10] was above 100 µM throughout.
On to `COc1ccc(Br)cc1NC(=O)Nc1cccc2c1ccn2Cc1ccnc(N)c1`, for which the GI50 in assay [1] was 6.45 µM and 8.39 µM; in [2], 11.5 µM and > 10 µM; in assay [3], 6.16 µM and > 10 µM; in assay [4] it was 1.84 µM and 3.81 µM; in [5] it was 5.64 µM and > 10 µM; in assay [6], 2.78 µM and 3.82 µM. For the same compound, the GI50 was 4.86 µM and > 10 µM in assay [7]; 2.93 µM and 3.54 µM in assay [8]; 7.86 µM and > 10 µM in assay [9]; 4.69 µM and 3.6 µM in [10]. In addition, the TGI in assay [1] is 48.4 µM and > 10 µM; in assay [2], 24.8 µM and > 10 µM; in assay [3], 32.5 µM and > 10 µM; in assay [4] it was 16.2 µM and > 10 µM; in assay [5] it was 22.7 µM and > 10 µM; in assay [6], 8.87 µM and > 10 µM. Besides, the TGI in [7] is 11.1 µM and > 10 µM; in assay [8], above 31.6 µM; in assay [9] it was 37.9 µM and > 10 µM; in assay [10] it was 20.8 µM and > 10 µM.
